Data: ChEMBL document CHEMBL5126588, “Discovery of non-substrate, environmentally sensitive turn-on fluorescent probes for imaging HDAC8 in tumor cells and tissue slices” (Bioorg Med Chem, 2022)
Active and inactive are the calls of the source. The rule behind the calls is not given here.

How the values were obtained:
MDA-MB-231 [1] = experiment: Antiproliferative activity against human MDA-MB-231 cells within 20 uM by MTT assay; assay type: toxicity, cell-based; settings: mda-mb-231, 20 µM
[2] = target: T1, Protein deacetylase HDAC6 (Homo sapiens, UniProt Q9UBN7); experiment: Binding affinity to HDAC6 (unknown origin) by biolayer interferometry assay
T1 sequence (Q9UBN7 whole entry): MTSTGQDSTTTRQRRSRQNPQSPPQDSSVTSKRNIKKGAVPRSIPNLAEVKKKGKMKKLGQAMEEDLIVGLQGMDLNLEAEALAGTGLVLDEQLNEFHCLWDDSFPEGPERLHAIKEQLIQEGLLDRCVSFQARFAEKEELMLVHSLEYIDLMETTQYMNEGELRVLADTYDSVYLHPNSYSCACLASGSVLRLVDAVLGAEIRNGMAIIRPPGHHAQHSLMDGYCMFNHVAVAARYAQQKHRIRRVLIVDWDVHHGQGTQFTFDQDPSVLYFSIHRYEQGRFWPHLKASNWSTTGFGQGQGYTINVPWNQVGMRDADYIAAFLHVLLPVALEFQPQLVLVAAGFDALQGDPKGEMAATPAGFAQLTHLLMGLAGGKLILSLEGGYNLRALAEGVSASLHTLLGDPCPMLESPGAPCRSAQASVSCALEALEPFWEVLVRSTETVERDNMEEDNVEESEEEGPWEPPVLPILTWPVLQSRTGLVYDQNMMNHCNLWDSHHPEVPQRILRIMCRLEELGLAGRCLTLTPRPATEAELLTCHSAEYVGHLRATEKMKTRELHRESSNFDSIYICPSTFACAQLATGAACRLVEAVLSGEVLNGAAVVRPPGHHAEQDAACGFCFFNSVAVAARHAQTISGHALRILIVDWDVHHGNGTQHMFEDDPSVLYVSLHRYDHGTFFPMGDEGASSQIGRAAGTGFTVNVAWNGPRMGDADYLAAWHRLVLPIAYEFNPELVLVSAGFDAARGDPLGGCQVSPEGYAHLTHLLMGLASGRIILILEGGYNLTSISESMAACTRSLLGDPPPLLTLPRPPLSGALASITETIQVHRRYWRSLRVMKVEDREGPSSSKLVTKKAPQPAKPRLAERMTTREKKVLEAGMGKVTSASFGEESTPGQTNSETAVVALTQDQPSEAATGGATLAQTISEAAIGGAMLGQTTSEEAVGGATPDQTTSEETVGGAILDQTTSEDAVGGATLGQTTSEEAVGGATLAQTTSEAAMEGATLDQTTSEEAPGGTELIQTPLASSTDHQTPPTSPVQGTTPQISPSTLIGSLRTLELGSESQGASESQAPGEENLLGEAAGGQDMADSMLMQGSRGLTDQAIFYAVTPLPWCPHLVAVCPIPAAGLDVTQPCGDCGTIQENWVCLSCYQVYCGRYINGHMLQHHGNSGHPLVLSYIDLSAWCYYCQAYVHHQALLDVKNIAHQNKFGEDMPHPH

[3] = target: T2, Histone deacetylase 8 (Homo sapiens) (UniProt Q9BY41); experiment: Binding affinity to HDAC8 in human SH-SY5Y cells assessed as increase in fluorescence intensity at 10 uM after 30 mins by confocal fluorescence microscopic analysis; assay type: cell-based
T2 sequence (whole entry): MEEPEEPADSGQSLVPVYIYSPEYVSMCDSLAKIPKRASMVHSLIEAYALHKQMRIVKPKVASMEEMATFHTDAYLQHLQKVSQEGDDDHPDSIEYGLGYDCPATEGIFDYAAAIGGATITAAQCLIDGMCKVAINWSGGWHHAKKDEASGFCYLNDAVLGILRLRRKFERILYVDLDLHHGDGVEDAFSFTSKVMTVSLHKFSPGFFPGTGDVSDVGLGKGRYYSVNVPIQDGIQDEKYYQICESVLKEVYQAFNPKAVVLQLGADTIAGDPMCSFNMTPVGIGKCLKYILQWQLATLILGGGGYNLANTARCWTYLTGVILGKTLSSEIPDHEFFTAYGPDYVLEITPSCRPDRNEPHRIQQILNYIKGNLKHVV

Histone deacetylase 8 = target: T3, Histone deacetylase 8 (Homo sapiens, UniProt Q9BY41); experiment: Binding affinity to HDAC8 (unknown origin) by biolayer interferometry assay
T3 sequence (Q9BY41 whole entry): T2 sequence (whole entry)

[4] = target: T2, Histone deacetylase 8 (Homo sapiens); experiment: Binding affinity to HDAC8 in human SH-SY5Y cells xenografted with BALB/c mouse assessed as increase in fluorescence intensity in tumor tissue at 20 uM after 30 mins by fluorescence imaging analysis
SH-SY5Y [5] = experiment: Antiproliferative activity against human SH-SY5Y cells by MTT assay; assay type: functional, cell-based
[6] = target: T2, Histone deacetylase 8 (Homo sapiens); experiment: Binding affinity to HDAC8 in human SH-SY5Y cells assessed as increase in fluorescence intensity at 5 to 10 uM incubated for 30 mins by flow cytometry analysis; assay type: cell-based; settings: dose 5-10 µM
SH-SY5Y [7] = experiment: Antiproliferative activity against human SH-SY5Y cells within 20 uM by MTT assay; assay type: toxicity, cell-based
Histone deacetylase 1 = Histone deacetylase 1 (Homo sapiens, UniProt Q13547); experiment: Binding affinity to HDAC1 (unknown origin) by biolayer interferometry assay
Chain of Histone deacetylase 1 (Q13547 whole entry): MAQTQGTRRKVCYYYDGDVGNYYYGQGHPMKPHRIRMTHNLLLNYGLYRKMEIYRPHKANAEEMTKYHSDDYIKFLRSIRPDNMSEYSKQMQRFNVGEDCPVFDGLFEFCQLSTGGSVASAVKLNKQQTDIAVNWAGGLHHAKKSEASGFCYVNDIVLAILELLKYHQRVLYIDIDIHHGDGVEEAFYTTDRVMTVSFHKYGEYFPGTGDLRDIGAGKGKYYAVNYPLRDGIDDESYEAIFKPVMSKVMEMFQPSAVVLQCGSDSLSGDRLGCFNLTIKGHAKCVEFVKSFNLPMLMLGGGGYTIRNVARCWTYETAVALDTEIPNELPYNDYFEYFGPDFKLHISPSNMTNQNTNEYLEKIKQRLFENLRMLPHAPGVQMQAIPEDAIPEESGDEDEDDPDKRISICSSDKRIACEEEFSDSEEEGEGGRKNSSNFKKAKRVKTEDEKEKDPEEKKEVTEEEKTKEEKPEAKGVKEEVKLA

MDA-MB-231 [8] = experiment: Antiproliferative activity against human MDA-MB-231 cells by MTT assay; assay type: functional, cell-based

| Compound | Activity (MDA-MB-231 [1]) | Kd [2] | Activity [3] | Kd (Histone deacetylase 8) | Activity [4] | IC50 (SH-SY5Y [5]) | Activity [6] | Activity (SH-SY5Y [7]) | Kd (Histone deacetylase 1) | IC50 (MDA-MB-231 [8]) |
| --- | --- | --- | --- | --- | --- | --- | --- | --- | --- | --- |
| COc1ccc(Cn2ccc3ccc(C(=O)NO)cc32)cc1C(=O)NCCCCNc1ccc(S(=O)(=O)N(C)C)c2nonc12 | Non-Toxic | 137 µM | Active | 8.89 µM | Active | 8.48 µM | Active | Non-Toxic | 79.4 µM | 33 µM |
| COc1ccc(Cn2ccc3ccc(C(=O)NO)cc32)cc1 |  |  |  |  |  | 2.38 µM |  |  |  | 16.1 µM |
| COc1ccc(Cn2ccc3ccc(C(=O)NO)cc32)cc1C(=O)NCCNc1ccc(S(=O)(=O)N(C)C)c2nonc12 |  | 29.4 µM |  | 5.37 µM |  | 9.93 µM |  |  | 16.2 µM | 16.1 µM |
| COc1ccc(Cn2ccc3ccc(C(=O)NO)cc32)cc1C(=O)NCCCNc1ccc(S(=O)(=O)N(C)C)c2nonc12 |  | 20.1 µM |  | 3.57 µM |  | 8.56 µM |  |  | 20.6 µM | 18 µM |
